# Like-named read-outs stand apart in the source and are kept apart here.
# How the values were obtained:
# [1] = test system: tongue; experiment: Oral cavity screen: 15 mg of crystals on the dorsal surface of the tongue; assay type: in vivo, human
# Experimental: In this discovery, sensory activity in the oral cavity was the first screen. The goal was to identify candidates producing unusual sensations. Test agents, prepared as 15 mg of white crystals, were placed on the dorsal surface of the tongue. The chemical structures and identifying characteristics are in Table 1. […] Related cooling agents were not freezing cold, except for WS-23.
# [2] = test system: philtrum skin; experiment: Philtrum (skin) bioassay of cooling; assay type: in vivo, human; conditions: for Comments: quality of sensation on philtrum skin: 8% wt/vol; for Duration of cooling: 8% wt/vol on philtrum; for Duration-Skin: Wei, Table 6, see FIG. 6
# Experimental: FIG. 5. The philtrum bioassay. Cooling agents, prepared as a or in solution are applied to the philtrum skin. Cooling intensity is rated on a scale of 0 to 3, with 0=no changes in sensation, 1=a slight feeling of coolness, cold or tingling, 2=a clearcut feeling of coolness of cold, and 3=a robust feeling of coolness of cold. The duration of cooling was recorded until two zeroes were measured 10 min apart.
# TRPM8 EC50 Receptor Assay. […] A receptor assay is a standard tool and can be done quickly. For example, in a 384-plate assay, you can easily test 10 compounds and get dose-response data. For a chemical agonist, an in vitro TRPM8 assay generates an EC50 (median effective concentration). But the quantitative correlation between the EC50 on TRPM8 and cooling sensation was vague. That is, the science was “roughly” predictive, but there was considerable uncertainty for each agonist. […] Philtrum (Skin) Assay. For cooling sensations on the skin, it is necessary to test the substance on the skin. Wei proposed the use of the skin on the philtrum as a test site for cooling activity of chemicals (FIG. 5). The test substance is dissolved in a carrier, such as solvent, gel, or ointment and applied to the philtrum, a surface area of […]. The subject records sensations on the philtrum and environs as:
# The subject is given a form to record observations and instructions to mark sensations on the philtrum and environs as: 0=no changes in sensation, 1=a slight feeling of coolness, cold, or tingling, 2=a clearcut feeling of coolness or cold, and 3=a robust feeling of coolness and cold.
# The intervals for measurements are usually at 5, to 15 min after application, until two successive zeros are obtained. The philtrum application site is the midline groove above the upper lip border and vermilion. The gel is placed on the philtrum with a cotton-tipped applicator up to the nasolabial folds and sometimes, but not deliberately, on the lower nostrils (subnasale). Cold receptors densely innervate the philtrum skin (FIG. 5), second only to the surfaces of the eyeball and anogenitalia. The lips also have a high density of “cold spots.” Hensel et al. mapped the cold spots on the human face (cited in Dhaka et al., 2008). In animals such as the rat the mystacial pad (nose pad with vibrissae) is abundantly labeled with TRPM8-fibers. “Cold Points” linked to single-unit neuronal discharges can be measured in experimental animals. Wei has direct experience in such experiments (Poree et al., 1989).
# Dip a cotton-tipped applicator (Puritan Cotton-tipped applicators, or Q-Tips) into a reservoir bottle containing the liquid or semi-liquid (gel) test substance. The composition adhering to the cotton (about 0.1 mL) is put on the skin. The philtrum site is shown in a cartoon. A subject can practice the method in front of a mirror with a high-intensity light source. Results for test on the philtrum are in Table 8 and FIG. 5. See data in FIG. 6. Cooling agents, prepared as an 8% wt./vol. gel, was tested topically on the philtrum skin assay. The duration of cooling was recorded (min on y-axis). The startling activity of FEMA 4557, cooling for ˜3 hr, was unexpected and surprising. FEMA 3784 is also known as Cool 10 or menthoxypropanediol. […]
# [3] = test system: itch induced by various pruritogens; experiment: Itch induced by pruritogens on skin of healthy volunteers (FIG. 1); assay type: in vivo, human; conditions: gel on skin, five test pruritogens, itch self-rated 0 to 10 for 10 min
# Experimental: FIG. 1. Topical Application of a cooling DIPA1-7 gel on skin of healthy volunteers inhibits itch induced by various pruritogens. n=30 subjects per trial. Results of Prof. Hyeone Kim, Sacred Heart Hospital, […] University, Seoul, Korea. Itch intensity was self-rated on a scale of 0 to 10 for 10 min (maximum score=100). […] Further details will be described in a scientific paper.
# [4] = test system: tongue; experiment: Oral cavity screen: 15 mg of crystals on the dorsal surface of the tongue; assay type: in vivo, human; conditions: less than 2 mg on the tongue
# [5] = test system: itch of urticaria and scalp itch; conditions: Kang et al., 2022; cited from earlier work
# [6] = test system: oral cavity; conditions: 100 ppm in 5% sucrose; scale of 0 to 9 units; Johnson, 2018; cited from earlier work
# [7] = target: T1, TRPM8 (Mus musculus, UniProt Q8R4D5); design: EC50; conditions: Ref. 3 (Bodding et al., 2007); cited from earlier work
# [8] = target: TRPM8 (Homo sapiens, UniProt Q7Z2W7); design: EC50; other: Johnson, 2.2/2.2; conditions: Ref. 5 (Johnson et al., 2018); cited from earlier work
# [9] = target: T2, TRPM8 (Rattus norvegicus, UniProt Q8R455); design: EC50; other: Sherkheli, 196/1500; conditions: Ref. 4 (Sherkheli et al., 2010); cited from earlier work
# [10] = test system: canine dermatitis, scratching and licking; experiment: Topical treatment of canine skin irritation (case studies); assay type: in vivo, dog; conditions: Study 3, repeated bathing
# Experimental: The Applicant gave the dog's owner an airless pump dispenser containing 8% wt/vol of FEMA 4557 dispersed in 4 mg/ml of carbapol 980, formulated with 1% ethanol and 1% menthol, and instructed him to apply the gel to the skin of the dog's belly and groin.
# A twelve-year-old West Highland Terrier had periodic episodes of seasonal skin allergy. […] The owner of the dog, who had access to a pharmacy, applied nystatin ointment and a potent skin steroid cream containing […].
# Next, a 20% wt/vol FEMA 4557 solution, dissolved in propylene glycol, was applied to the interdigital folds of the paws with a cotton-tipped applicator (FIG. 9).
# [11] = target: T1, TRPM8; conditions: Ref. 2 (Behrendt et al., 2004); cited from earlier work
# [12] = target: T2, TRPM8; conditions: Ref. 1 column (McKemy et al., 2002); cited from earlier work
# [13] = Comparison of classes of cooling agents for applications on the canine skin (grades); design: species or system dog; key: A = excellent; B = average; C = poor; F = does not work; conditions: grade
# From the text: Here are comments on grades assigned to specific classes of cooling agents (Table 3). […] The p-menthane carboxamides cover a wide range of compounds, but they are difficult for skin formulation to achieve a long duration of action. Menthol is short-acting and irritating, especially when it is near the ocular surface. The 1-dialkylphosphorylalkane known as DIPA1-7 (Cryosim-1, 1-dialkylphosphorylheptane) is an excellent skin agent, but costs are high for dermatological applications.
# [14] = test system: scratching excoriations; conditions: ointment; Biro et al., 2005; cited from earlier work
# [15] = test system: canine atopic dermatitis; conditions: cited from earlier work
# [16] = target: T3, TRPA1 (Homo sapiens, UniProt O75762); experiment: Bioassay in cells transfected with TRPA1 (FIG. 4); assay type: cell-based
# T3 construct: expressed in transfected cells
# From the text: FIG. 4 Bioassay of FEMA 4557 (labeled as BUDA on the graph) in TRPM8 and TRPA1. Data from the laboratory of Prof. Seok-Yong Lee at Duke University.
# FIG. 4 Bioassay of FEMA 4557 (labeled as BUDA) in TRPM8 and TRPA1. Data of Prof. Seok-Yong Lee at Duke University.
# T1 sequence (Q8R4D5 whole entry): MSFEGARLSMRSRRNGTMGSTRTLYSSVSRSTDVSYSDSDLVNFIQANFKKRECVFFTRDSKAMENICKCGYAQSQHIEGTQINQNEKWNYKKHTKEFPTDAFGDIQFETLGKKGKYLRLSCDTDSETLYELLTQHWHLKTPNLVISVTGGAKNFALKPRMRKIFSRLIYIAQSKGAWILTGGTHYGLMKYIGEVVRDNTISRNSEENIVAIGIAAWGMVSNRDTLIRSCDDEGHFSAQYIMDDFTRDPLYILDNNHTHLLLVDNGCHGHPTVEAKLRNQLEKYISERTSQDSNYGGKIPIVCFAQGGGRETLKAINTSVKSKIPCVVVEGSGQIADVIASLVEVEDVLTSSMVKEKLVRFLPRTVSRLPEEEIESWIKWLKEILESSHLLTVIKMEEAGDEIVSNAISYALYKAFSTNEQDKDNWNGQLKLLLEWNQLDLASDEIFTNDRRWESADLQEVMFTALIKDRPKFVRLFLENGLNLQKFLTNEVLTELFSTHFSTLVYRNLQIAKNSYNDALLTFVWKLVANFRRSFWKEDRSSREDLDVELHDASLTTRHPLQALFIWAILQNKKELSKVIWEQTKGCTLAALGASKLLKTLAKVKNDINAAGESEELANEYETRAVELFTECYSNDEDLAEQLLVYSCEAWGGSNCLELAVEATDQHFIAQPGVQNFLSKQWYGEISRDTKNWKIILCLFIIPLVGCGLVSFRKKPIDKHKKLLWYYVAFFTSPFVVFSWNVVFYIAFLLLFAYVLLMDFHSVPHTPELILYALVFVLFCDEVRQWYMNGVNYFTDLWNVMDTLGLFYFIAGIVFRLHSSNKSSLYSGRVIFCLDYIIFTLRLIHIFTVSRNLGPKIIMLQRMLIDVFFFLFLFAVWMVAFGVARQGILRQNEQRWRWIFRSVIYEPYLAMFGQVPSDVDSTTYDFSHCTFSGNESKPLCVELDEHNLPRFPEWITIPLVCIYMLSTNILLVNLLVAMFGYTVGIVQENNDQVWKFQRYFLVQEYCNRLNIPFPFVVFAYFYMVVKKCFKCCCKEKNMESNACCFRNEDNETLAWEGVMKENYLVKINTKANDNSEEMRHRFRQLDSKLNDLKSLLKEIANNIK
# T2 sequence (Q8R455 whole entry): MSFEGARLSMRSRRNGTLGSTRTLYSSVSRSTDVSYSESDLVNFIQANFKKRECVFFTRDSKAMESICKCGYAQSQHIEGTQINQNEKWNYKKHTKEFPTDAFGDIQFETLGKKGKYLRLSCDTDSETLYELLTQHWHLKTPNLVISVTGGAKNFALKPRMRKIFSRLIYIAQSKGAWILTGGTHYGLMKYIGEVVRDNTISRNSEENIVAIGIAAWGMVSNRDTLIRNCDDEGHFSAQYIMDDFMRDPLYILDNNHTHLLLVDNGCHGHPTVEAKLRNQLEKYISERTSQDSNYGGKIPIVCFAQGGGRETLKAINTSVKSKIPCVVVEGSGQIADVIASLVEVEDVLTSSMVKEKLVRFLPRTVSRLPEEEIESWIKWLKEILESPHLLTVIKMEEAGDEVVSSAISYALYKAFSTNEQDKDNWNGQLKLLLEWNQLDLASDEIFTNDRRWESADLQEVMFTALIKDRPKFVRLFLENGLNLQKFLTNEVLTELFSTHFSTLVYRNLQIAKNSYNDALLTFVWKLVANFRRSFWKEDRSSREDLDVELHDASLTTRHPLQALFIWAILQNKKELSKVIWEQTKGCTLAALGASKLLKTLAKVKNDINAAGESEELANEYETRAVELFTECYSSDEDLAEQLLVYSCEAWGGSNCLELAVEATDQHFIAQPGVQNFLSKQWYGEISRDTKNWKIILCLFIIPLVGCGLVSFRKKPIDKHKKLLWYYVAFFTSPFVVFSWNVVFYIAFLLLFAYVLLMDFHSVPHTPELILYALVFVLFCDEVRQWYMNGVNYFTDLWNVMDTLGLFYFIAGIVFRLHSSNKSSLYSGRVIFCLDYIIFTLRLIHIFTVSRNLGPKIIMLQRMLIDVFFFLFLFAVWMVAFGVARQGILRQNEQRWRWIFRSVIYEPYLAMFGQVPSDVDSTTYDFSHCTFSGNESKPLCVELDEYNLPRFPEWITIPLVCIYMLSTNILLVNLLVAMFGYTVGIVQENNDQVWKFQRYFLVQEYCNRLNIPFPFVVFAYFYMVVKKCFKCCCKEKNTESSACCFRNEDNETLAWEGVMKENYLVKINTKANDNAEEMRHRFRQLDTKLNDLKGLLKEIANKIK
# T3 sequence (O75762 whole entry, species assumed): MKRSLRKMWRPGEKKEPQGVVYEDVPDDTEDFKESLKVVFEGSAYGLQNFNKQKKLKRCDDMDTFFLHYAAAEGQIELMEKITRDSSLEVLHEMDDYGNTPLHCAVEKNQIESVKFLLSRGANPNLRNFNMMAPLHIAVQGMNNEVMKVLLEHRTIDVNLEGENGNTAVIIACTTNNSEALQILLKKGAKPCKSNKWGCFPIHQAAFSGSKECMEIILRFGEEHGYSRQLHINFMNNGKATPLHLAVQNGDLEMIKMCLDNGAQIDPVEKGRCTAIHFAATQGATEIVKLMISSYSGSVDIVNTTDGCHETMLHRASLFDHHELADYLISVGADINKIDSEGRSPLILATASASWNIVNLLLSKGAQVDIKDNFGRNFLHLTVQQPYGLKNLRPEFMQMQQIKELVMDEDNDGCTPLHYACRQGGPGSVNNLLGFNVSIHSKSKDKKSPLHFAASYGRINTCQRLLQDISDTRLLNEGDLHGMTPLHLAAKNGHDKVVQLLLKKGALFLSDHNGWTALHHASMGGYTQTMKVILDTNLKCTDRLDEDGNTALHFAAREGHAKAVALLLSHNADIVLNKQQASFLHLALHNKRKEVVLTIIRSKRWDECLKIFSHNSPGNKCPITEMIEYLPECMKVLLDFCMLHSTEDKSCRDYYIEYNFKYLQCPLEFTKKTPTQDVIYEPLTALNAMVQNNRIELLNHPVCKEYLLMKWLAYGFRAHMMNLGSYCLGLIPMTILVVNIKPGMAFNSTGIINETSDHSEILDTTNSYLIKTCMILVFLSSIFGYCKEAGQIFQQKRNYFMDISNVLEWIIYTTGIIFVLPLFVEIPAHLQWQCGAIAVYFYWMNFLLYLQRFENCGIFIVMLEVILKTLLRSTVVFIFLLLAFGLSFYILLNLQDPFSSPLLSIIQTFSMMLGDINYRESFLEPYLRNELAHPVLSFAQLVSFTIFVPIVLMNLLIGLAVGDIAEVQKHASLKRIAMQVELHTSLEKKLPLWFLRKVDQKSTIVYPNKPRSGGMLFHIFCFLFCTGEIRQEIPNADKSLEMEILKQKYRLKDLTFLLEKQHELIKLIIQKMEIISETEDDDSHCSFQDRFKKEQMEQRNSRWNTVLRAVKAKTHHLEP
structure (smiles),measurement,setting,value
"CCCCCCCP(=O)(C(C)C)C(C)C [DIPA-1-7, 1-diisopropylphosphorylheptane]",Effects of 15 mg on tongue: sensation,[1],"stinging, painful cold"
same,adverse skin sensations,"[2]; on skin, contrast to FEMA 4557",frigid cold and irritation
same,inhibition of pruritogen-induced itch,[3],significantly inhibited itching
same,sensation on the tongue,[4],"frigid, stinging, icy, and painful cold"
same,itch in human subjects,[5],inhibited the itch of urticaria and scalp itch
COc1ccc(NC(=O)[C@@H]2C[C@H](C)CC[C@H]2C(C)C)cc1 [WS-12],Effects of 15 mg on tongue: duration,[1],~20 min
same,Effects of 15 mg on tongue: sensation,[1],pleasant cooling in oral cavity
same,Comments: quality of sensation on philtrum skin,[2],pleasant cool sensations on skin
same,Duration of cooling,[2],38 ± 4 min
same,Duration-Skin,[2],0.4 h
same,Cooling Intensity Oral Cavity Scaled,[6],3
same,EC50,[7],0.2 µM
same,EC50,[8],22.1 µM
same,EC50,[9],12 µM
CC(=O)N1CCN(c2ccc(OCC3COC(Cn4ccnc4)(c4ccc(Cl)cc4Cl)O3)cc2)CC1 (stereo not shown) [ketoconazole],effect of antifungal shampoo on skin irritation,[10],did not make any difference
"CC(C)OC(=O)CNC(=O)[C@@H]1C[C@H](C)CC[C@H]1C(C)C [Ax-8, p-Menthane-Gly-OiPr]",Effects of 15 mg on tongue: duration,[1],~27 min
same,Effects of 15 mg on tongue: sensation,[1],pleasant cooling in oral cavity
Clc1ccc(COC(Cn2ccnc2)c2ccc(Cl)cc2Cl)c(Cl)c1 (stereo not shown) [miconazole],effect of antifungal shampoo on skin irritation,[10],did not make any difference
CCOC(=O)[C@@H](C)NC(=O)[C@@H]1C[C@H](C)CC[C@H]1C(C)C [CPS-369],EC50,[7],3.6 µM
same,EC50,[9],65 µM
"CC(C)[C@@H]1CC[C@@H](C)C[C@H]1OCC(O)CO (stereo partly shown) [Cool 10, menthoxypropanediol]",EC50,[11],6 µM
CCCCCCCP(=O)(C(C)CC)C(C)CC (stereo not shown) [WS-148],EC50,[7],4.1 µM
CC(C)[C@@H]1CC[C@@H](C)C[C@H]1O [l-menthol],Duration-Skin,[2],0.3 h
same,EC50,[11],4.1 µM
same,EC50,[12],67 µM
same,Cooling Intensity Oral Cavity Scaled,[6],5
same,EC50,[7],10.4 µM
same,EC50,[9],196 µM
O=C1NC(c2cccc([N+](=O)[O-])c2)=CCN1c1ccccc1O [icilin],Absence of Irritancy,[13],A
same,Potency,[13],A
same,Rapid Onset,[13],B
same,Safety in Use,[13],A
same,Sufficient Duration,[13],A
same,EC50,[12],0.36 µM
same,scratching excoriations,[14],prevented scratching excoriations
same,EC50,[7],1.4 µM
same,EC50,[9],7 µM
CCNC(=O)[C@@H]1C[C@H](C)CC[C@H]1C(C)C [WS-3],Effects of 15 mg on tongue: duration,[1],~8 min
same,Effects of 15 mg on tongue: sensation,[1],pleasant cooling in oral cavity
same,Duration-Skin,[2],0.3 h
same,EC50,[11],3.7 µM
same,Cooling Intensity Oral Cavity Scaled,[6],5.2
same,EC50,[8],5.9 µM
same,EC50,[9],210 µM
CNS(=O)(=O)C[C@H]1CC[C@H](N(C)c2ncnc3[nH]ccc23)CC1 [oclacitinib],onset of anti-scratching effects,[15]; oral tablet once or twice a day,as early as four hours after dosing
same,Onset,[15]; oral tablet,"15 min, hours"
"C=CCN=C=S [AITC, allyl isothiocyanate]",activity on TRPA1,[16],active
CCOC(=O)CNC(=O)[C@@H]1C[C@H](C)CC[C@H]1C(C)C [WS-5],Effects of 15 mg on tongue: duration,[1],~12 min
same,Effects of 15 mg on tongue: sensation,[1],pleasant cooling in oral cavity
same,Comments: quality of sensation on philtrum skin,[2],pleasant cool sensations of skin
same,Duration of cooling,[2],51 ± 4 min
same,Duration-Skin,[2],0.5 h
same,Cooling Intensity Oral Cavity Scaled,[6],6
same,EC50,[8],0.5 µM
same,EC50,[9],26 µM

# Source: patent US20240269094A1, “Treatment of canine dermatitis and skin irritation” (priority 2023, published 2024)
